From patent US20070253957A1, “Substituted N-Aryl-1H-Pyrazolo[3,4-B]Quinolin-4-Amines and Analogs as Activators of Caspases and Inducers of Apoptosis” (Cytovia, Inc., priority 2004, published 2007)
Like-named read-outs stand apart in the source and are kept apart here.

Experiments:
[1] = test system: T-47D; assay: Inhibition of cell proliferation (GI50), CellTiter 96 AQUEOUS One Solution, T-47D cells; type: cell-based, Human; conditions: 48 h incubation, dose for 50% inhibition of cell proliferation
Experimental: (§1) T-47D and MX1 cells were grown and harvested as in Example 49. An aliquot of 90 μL of cells (2.2×10^4 cells/mL) was added to a well of a 96-well micrQtiter plate containing 10 μl of a 10% DMSO in RPMI-1640 media solution containing […] to 100 μM of 1,3-dimethyl-N-(4-methoxyphenyl)-1H-pyrazolo[3,4-b]quinolin-4-amine (0.1 nM to 10 μM final) or other test compound. An aliquot of 90 μL of cells was added to a well of a 96-well microtiter plate containing 10 μL of a 10% DMSO in RPMI-1640 media solution without compound as the control sample for maximal cell proliferation (AMax). The samples were mixed by agitation and then incubated at 37° C. for 48 h in a 5% CO2-95% humidity incubator. After incubation, the samples were removed from the incubator and 20 μL of CellTiter 96 AQUEOUS One Solution Cell Proliferation™ reagent (Promega) was added. The samples were mixed by agitation and incubated at 37° C. for 2-4 h in a 5% CO2-95% humidity incubator. Using an absorbance plate reader (Model 1420 Wallac Instruments), an initial reading (T=0) was made about 1-2 min after addition of the solution, employing absorbance at 490 nm. This determines the possible background absorbance of the test compounds. No absorbance for 1,3-dimethyl-N-(4-methoxyphenyl)-1H-pyrazolo[3,4-b]quinolin-4-amine was found at 490 nm. After the 2-4 h incubation, the samples were read for absorbance as above (ATest).
(§2) Baseline for GI50 (dose for 50% inhibition of cell proliferation) of initial cell numbers were determined by adding an aliquot of 90 μL of cells or 90 μL of media, respectively, to wells of a 96-well microtiter plate containing 10 μL of a 10% DMSO in RPMI-1640 media solution. The samples were mixed by agitation and then incubated at 37° C. for 0.5 h in a 5% CO2-95% humidity incubator. After incubation, the samples were removed from the incubator and 20 μL of CellTiter 96 AQUEOUS One Solution Cell Proliferation™ reagent (Promega) was added. The samples were mixed by agitation and incubated at 37° C. for 2-4 h in a 5% CO2-95% humidity incubator. Absorbance was read as above, (Astart) defining absorbance for initial cell number used as baseline in GI50 determinations.
(§3) GI50 (dose for 50% inhibition of cell proliferation) is the concentration where [(ATest−Astart)/(AMax−AStart)]=0.5.

[2] = test system: MX1; assay: Inhibition of cell proliferation (GI50), CellTiter 96 AQUEOUS One Solution, MX1 cells; type: cell-based; conditions: 48 h incubation, dose for 50% inhibition of cell proliferation
Experimental: as §1, §2, §3

[3] = test system: T-47D; assay: Caspase cascade activation assay (N-(Ac-DEVD)-N'-ethoxycarbonyl-R110 fluorogenic substrate) in T-47D cells; type: cell-based, Human; conditions: 24 h incubation; for Caspase Activity Ratio: ratio of net RFU (T=3 h) to that of control samples, 0.16 to 10 μM final; for EC50: sigmoidal dose-response calculation, read-out: Caspase Potency EC50
Experimental: Human breast cancer cell lines T-47D was grown according to media component mixtures designated by American Type Culture Collection+10% FCS (mvitrogen Corporation), in a 5% CO2-95% humidity incubator at 37° C. T-47D and ZR-75-1 cells were maintained at a cell density between 30 and 80% confluency and for HL-60 at a cell density of 0.1 to 0.6×10^6 cells/mL. Cells were harvested at 600×g and resuspended at 0.65×10^6 cells/mL into appropriate media+10% FCS. An aliquot of 45 μL of cells was added to a well of a 96-well microtiter plate containing 5 μL of a 10% DMSO in RPMI-1640 media solution containing 1.6 to 100 μM of 1,3-dimethyl-N-(4-methoxyphenyl)-1H-pyrazolo[3,4-b]quinolin-4-amine or other test compound (0.16 to 10 μM final). An aliquot of 45 μL of cells was added to a well of a 96-well microtiter plate containing 5 μL of a 10% DMSO in RPMI-1640 media solution without test compound as the control sample. The samples were mixed by agitation and then incubated at 37° C. for 24 h in a 5% CO2-95% humidity incubator. After incubation, the samples were removed from the incubator and 50 μL of a solution containing 20 μM of N-(Ac-DEVD)-N′-ethoxycarbonyl-R110 fluorogenic substrate (SEQ ID NO:1) (Cytovia, Inc.; U.S. Pat. No. 6,335,429), 20% sucrose (Sigma), 20 mM DTT (Sigma), 200 mM NaCl (Sigma), 40 mM Na PIPES buffer pH 7.2 (Sigma), and 500 μg/mL lysolecithin (Calbiochem) was added. The samples were mixed by agitation and incubated at room temperature. Using a fluorescent plate reader (Model 1420 Wallac Instruments), an initial reading (T=0) was made about 1-2 min after addition of the substrate solution, employing excitation at 485 nm and emission at 530 nm, to determine the background fluorescence of the control sample. After about 3 h of incubation, the samples were read for fluorescence as above (T=3 h).
The Relative Fluorescence Unit values (RFU) were used to calculate the sample readings as follows: RFU(T=3h)−Control RFU(T=0)=Net RFU(T=3h)
The activity of caspase cascade activation was determined by the ratio of the net RFU value for 1,3-dimethyl-N-(4-methoxyphenyl)-1H-pyrazolo[3,4-b]quinolin-4-amine to that of control samples. The EC50 (nM) was determined by a sigmoidal dose-response calculation (Prism 2.0, GraphPad Software Inc.).

SMILES | GI50 ([1]; Homo sapiens, T47D) [nM] | GI50 ([2]; Homo sapiens) [nM] | Caspase Activity Ratio [3] | EC50 ([3]; Homo sapiens, T47D) [nM] | GI50 [1] [nM] | GI50 [2] [nM] | EC50 [3] [nM]
COc1ccc(Nc2c3ccccc3nc3c2c(C)nn3C)cc1 [Compound A, 1,3-Dimethyl-N-(4-methoxyphenyl)-1H-pyrazolo[3,4-b]quinolin-4-amine] | 809 | 800 | 3.8 | 793 | – | – | –
COC(=O)c1ccc(Nc2c3ccccc3nc3c2c(C)nn3C)cc1 [Example 4, 1,3-Dimethyl-N-(4-(methoxycarbonyl)phenyl)-1H-pyrazolo[3,4-b]quinolin-4-amine] | 519 | 500 | 8.6 | 333 | – | – | –
CC(=O)c1ccc(Nc2c3c(nc4ccccc24)CCC3)cc1 [Example 11, N-(4-Acetylphenyl)-2,3-dihydro-1H-cyclopenta[b]quinolin-9-amine] | 300 | 300 | 9.4 | 444 | – | – | –
CCC(=O)c1ccc(Nc2c3ccccc3nc3c2c(C)nn3C)cc1 [Example 23, 1,3-Dimethyl-N-(4-propionylphenyl)-1H-pyrazolo[3,4-b]quinolin-4-amine] | 30 | 30 | 4.2 | 43 | – | – | –
CC(=O)c1ccc(Nc2c3cc(C)ccc3nc3c2c(C)nn3C)cc1 [Example 26, N-(4-Acetylphenyl)-1,3,6-trimethyl-1H-pyrazolo[3,4-b]quinolin-4-amine] | > 10000 | > 10000 | 1.1 | > 10000 | – | – | –
CC(=O)c1ccc(Nc2c3cccc(C)c3nc3c2c(C)nn3C)cc1 [Example 29, N-(4-Acetylphenyl)-1,3,8-trimethyl-1H-pyrazolo[3,4-b]quinolin-4-amme] | – | – | 4.2 | – | 399 | 600 | 663
COC(=O)c1ccc(N(C)c2c3ccccc3nc3c2c(C)nn3C)cc1 [Example 30, 1,3-Dimethyl-N-methyl-N-(4-methoxycarbonylphenyl)-1H-pyrazolo[3,4-b]quinolin-4-amine] | 4560 | 4000 | 6.6 | 2850 | – | – | –
COc1ccc(N(C)c2c3ccccc3nc3c2c(C)nn3C)cc1 [Example 31, 1,3-Dimethyl-N-methyl-N-(4-methoxyphenyl)-1H-pyrazolo[3,4-b]quinolin-4-amine] | 6100 | > 10000 | 9.7 | 4100 | – | – | –
CSc1ccc(Nc2c3ccccc3nc3c2c(C)nn3C)cc1 [Example 33, 1,3-Dimethyl-N-(4-methylthiophenyl)-1H-pyrazolo[3,4-b]quinolin-4-amine] | 500 | 500 | 3.6 | 667 | – | – | –
CCC(=O)c1ccc(Nc2c3cccc([N+](=O)[O-])c3nc3c2c(C)nn3C)cc1 [Example 37, 1,3-Dimethyl-8-nitro-N-(4-propionylphenyl)-1H-pyrazolo[3,4-b]quinolin-4-amine] | 546 | 900 | 4.2 | 435 | – | – | –
CCC(=O)c1ccc(Nc2c3cccc(N)c3nc3c2c(C)nn3C)cc1 [Example 38, 8-Amino-1,3-dimethyl-N-(4-propionylphenyl)-1H-pyrazolo[3,4-b]quinolin-4-amine] | 803 | 2210 | 5.1 | 706 | – | – | –
CCC(=O)c1ccc(Nc2c3ccccc3nc3c2c(C)nn3CC)cc1 [Example 42, 1-Ethyl-3-methyl-N-(4-propionylphenyl)-1H-pyrazolo[3,4-b]quinolin-4-amine] | 100 | 100 | 6.7 | 173 | – | – | –
CCC(O)c1ccc(Nc2c3ccccc3nc3c2c(C)nn3C)cc1 (stereo not shown) [Example 43, N-(4-(1-Hydroxypropyl)-phenyl)-1,3-dimethyl-1H-pyrazolo[3,4-b]quinolin-4-amine] | 140 | 1670 | 3.7 | 183 | – | – | –
